Reference: patent publication US9089572B2, “Inhibitors of p97” (California Institute of Technology, priority 2008, dated 2015)

Legend:
[1] = molecular target: wild type murine p97 (Mus musculus, UniProt Q01853); experiment: In vitro ATP hydrolysis (malachite green ATPase assay), wild type murine p97; type: biochemical; conditions: 200 nM p97, 20 min preincubation at 23° C., malachite green; read-out: In vitro ATP Hydrolysis Activity IC50 WT-mP97
Protocol: Compounds were tested for their ability to inhibit the ATPase activity of purified wild type murine p97 and T532C-Cdc48, a mutant of yeast Cdc48 in which the residue analogous to cysteine 522, threonine 532, was converted to cysteine.

[2] = tested on: HeLa cells; experiment: Accumulation of high molecular weight ubiquitin conjugates (anti-ubiquitin immunoblot), HeLa cells; type: cell-based; conditions: 1 h at 37° C.
From the text: (§1) To evaluate whether compound 2 can target p97 activity in cells, we sought to determine whether this compound induces accumulation of high molecular weight ubiquitin conjugates, since it is known that RNAi-mediated knockdown of p97 in mammalian cells has this effect (Wojcik, C. et al. J. Cell Sci. (2004) 117, 281-292). As a positive control for this experiment, the proteasome inhibitor MG132 was used. […] The cells were then harvested, lysed, and centrifuged to generate soluble and insoluble fractions. These fractions were then immunoblotted with anti-ubiquitin antibodies to detect accumulation of high molecular weight conjugates. Blots were also probed with anti-PSTAIRE antibodies as a loading control. […] This effect is particularly pronounced in the insoluble fraction.
(§2) To evaluate whether compound 8 can target p97 activity in cells, it was determined whether this compound induces accumulation of high molecular weight ubiquitin conjugates, since it is known that RNAi-mediated knockdown of p97 in mammalian cells has this effect (Wojcik, C. et al. J. Cell Sci. (2004) 117, 281-292). The proteasome inhibitor bortezomib (velcade) was employed as a positive control for this experiment. HeLa (FIG. 25) or RPMI8226 (FIG. 26) cells were treated with Velcade, compound 8, or a combination thereof for 1 h at 37° C. The cells were then harvested and cell lysates were immunoblotted with anti-ubiquitin antibodies to detect accumulation of high molecular weight conjugates. Blots were also probed with anti-PSTAIRE antibodies as a loading control.

[3] = tested on: RPMI8226 cells; experiment: Accumulation of high molecular weight ubiquitin conjugates (anti-ubiquitin immunoblot), RPMI8226 cells; type: cell-based; conditions: 1 h at 37° C.
From the text: as §1, §2

[4] = tested on: Ub-G76V-GFP/HeLa cells; experiment: Degradation of pre-accumulated Ub-G76V-GFP (cycloheximide chase after MG132 washout); type: cell-based; conditions: for % K: relative to 0 μM
Protocol: To evaluate this possibility, an assay was developed to determine the rate of degradation of pre-accumulated Ub-G76V-GFP molecules. […] Cells were then washed with PBS three times remove the MG132. Cells were then refreshed by adding DMEM containing cycloheximide (50 μg/mL; to block production of more Ub-G76V-GFP) and test compounds (0˜10 μM) were added into cells. Eight 96-well plates were prepared and one of the plates was imaged at 25, 50, 70, 100, 110, 125, 145, or 170 min after washing with PBS three times. After washing out MG132, degradation of pre-accumulated Ub-G76V-GFP appears to follow pseudo-first order reaction. Rate constant (K; 1/min) can be determined from the slope of plotting Ln (Fold Accumulation) versus Time (min) (see FIG. 17 and FIG. 18).
Ub-G76V-GFP/HeLa cells were treated with MG132 (2 μM) for 1 h and washed with PBS three times. DMEM containing cycloheximide (50 μg/mL) and compound 8 (0-10 μM) was added into cells. Eight 96-well plates were prepared and one of the plates was imaged at 25, 50, 70, 100, 110, 125, 145, or 170 min after washing with PBS three times.

[5] = tested on: HeLa; experiment: MTT cell growth assay, HeLa; type: cell-based; conditions: Homo sapiens, 48 or 72 h, read-out: Cell line inhibition of growth GI50 HeLa
Protocol: (§3) To probe further the effect of compound 2 and related compounds 1, 3, 5, 6 and 7, various concentrations of these compounds were added to 13 different cell lines and incubated for 48 or 72 h. An MTT assay was then performed to evaluate cell growth and survival.

[6] = tested on: MCF7; experiment: MTT cell growth assay, MCF7; type: cell-based; conditions: Homo sapiens, 48 or 72 h, read-out: Cell line inhibition of growth GI50 MCF7
Protocol: as §3

[7] = tested on: MDAMB-231; experiment: MTT cell growth assay, MDAMB-231; type: cell-based; conditions: Homo sapiens, MDA-MB-231, 48 or 72 h, read-out: Cell line inhibition of growth GI50 MDAMB-231
Protocol: as §3

[8] = tested on: 293; experiment: MTT cell growth assay, 293; type: cell-based; conditions: Homo sapiens, HEK293, 48 or 72 h, read-out: Cell line inhibition of growth GI50 293
Protocol: as §3

[9] = tested on: RPMI8226; experiment: MTT cell growth assay, RPMI8226; type: cell-based; conditions: Homo sapiens, RPMI-8226, 48 or 72 h, read-out: Cell line inhibition of growth GI50 RPMI8226
Protocol: as §3

[10] = tested on: RL; experiment: MTT cell growth assay, RL; type: cell-based; conditions: Homo sapiens, 48 or 72 h, read-out: Cell line inhibition of growth GI50 RL
Protocol: as §3

[11] = tested on: Molt4; experiment: MTT cell growth assay, Molt4; type: cell-based; conditions: Homo sapiens, MOLT-4, 48 or 72 h, read-out: Cell line inhibition of growth GI50 Molt4
Protocol: as §3

[12] = tested on: CCRF-CEM; experiment: MTT cell growth assay, CCRF-CEM; type: cell-based; conditions: Homo sapiens, 48 or 72 h, read-out: Cell line inhibition of growth GI50 CCRF-CEM
Protocol: as §3

[13] = tested on: HTC116 WT; experiment: MTT cell growth assay, HTC116 WT; type: cell-based; conditions: 48 or 72 h, read-out: Cell line inhibition of growth GI50 HTC116 WT
Protocol: as §3

[14] = tested on: HCT116 p53−/−; experiment: MTT cell growth assay, HCT116 p53−/−; type: cell-based; conditions: Homo sapiens, HCT-116, 48 or 72 h, read-out: Cell line inhibition of growth GI50 HCT116 p53−/−
Protocol: as §3

[15] = tested on: LNCaP; experiment: MTT cell growth assay, LNCaP; type: cell-based; conditions: Homo sapiens, 48 or 72 h, read-out: Cell line inhibition of growth GI50 LNCaP
Protocol: as §3

[16] = tested on: DU145; experiment: MTT cell growth assay, DU145; type: cell-based; conditions: Homo sapiens, DU-145, 48 or 72 h, read-out: Cell line inhibition of growth GI50 DU145
Protocol: as §3

[17] = tested on: PC3; experiment: MTT cell growth assay, PC3; type: cell-based; conditions: Homo sapiens, PC-3, 48 or 72 h, read-out: Cell line inhibition of growth GI50 PC3
Protocol: as §3

[18] = tested on: 13 different cell lines; experiment: MTT cell growth assay, summary across 13 different cell lines; type: cell-based; conditions: vs compound 2, 13 cell lines
Protocol: as §3
Data for the assay with MCF-7 cells and HeLa cells is shown in FIG. 21 and FIG. 22, respectively. […] Thus, compound 2 blocks p97-dependent processes in cells and also blocks the proliferation of cancer cell lines, illustrating its potential utility as an anti-proliferative drug to treat cancer.

[19] = tested on: HeLa cell line that stably expresses UbG76V-GFP; experiment: Accumulation of UbG76V-GFP in HeLa cells (fluorescence microscopy); type: cell-based; conditions: 1 h at 37° C., fluorescence microscopy
Protocol: As a control, the same cells were treated with the proteasome inhibitor MG132. In the latter set of experiments, a HeLa cell line that stably expresses UbG76V-GFP was transfected with either wild type (WT), D1 mutant (E305Q), D2 mutant (E578Q) or E305Q, E578Q double mutant (QQ) murine 97-pcDNA4.1 plasmid (0.05 μg/100 μL) in a 96-well plate. After 23 h, the intensity of UbG76V-GFP signal was measured on a Molecular Devices ImageXpress automated fluorescence microscope. […] The direct accumulation of Ub-G76V-GFP caused by compound 2 at 25 μM is 4-fold less than that caused by MG132 at 2 μM. This is likely due to the fact that only fully folded Ub-G76V-GFP should require p97 for degradation by the proteasome.
As a second test of whether compound 8 can inhibit p97 in vivo, it was evaluated whether it can cause accumulation of the UbG76V-GFP reporter. A HeLa cell line that stably expresses UbG76V-GFP was treated with compound 8 for 1 h at 37° C., and was then evaluated by fluorescence microscopy. As a control, the same cells were treated with the proteasome inhibitor MG132. […] The level of GFP fluorescence was quantified in cells treated with compound 8 at different doses and for different periods of time (FIG. 28).

[20] = tested on: HEK293 cells that stably expressed TCR-GFP; experiment: Accumulation of ERAD reporter TCR-alpha-GFP; type: cell-based; conditions: 2 h at 37° C., fluorescence microscopy
Protocol: Since p97 has a well-established role in ERAD, it was also determined whether compound 2 affects the accumulation of an ERAD-reporter, TCR-alpha-GFP. HEK293 cells that stably expressed TCR-GFP were treated with MG132 (see FIG. 19), compound 1 or compound 2 (FIG. 20) at the indicated concentrations for 2 h at 37° C. prior to being imaged by fluorescence microscopy to determine TCR-GFP accumulation. […] It was thus concluded that compound 2 inhibits p97 in cells, resulting in the accumulation of both soluble and insoluble high molecular weight ubiquitin conjugates and UPS substrates whose degradation depends upon p97.
HEK293 cells that stably expressed TCR-GFP were treated with the Velcade (FIG. 30) or compound 8 (FIG. 31) at the indicated concentrations for 2 h at 37° C. prior to being imaged by fluorescence microscopy to quantify TCR-GFP accumulation.

[21] = tested on: MRC5-WT; experiment: CellTiter-Glo growth inhibition, parental MRC5 cells; type: cell-based; conditions: Homo sapiens, 48 h at 37° C., read-out: Cell line inhibition of growth GI50 MRC5-WT
[22] = tested on: MRC5-SV40; experiment: CellTiter-Glo growth inhibition, MRC5 cells engineered to express SV40; type: cell-based
[23] = molecular target: wild type p97 (Mus musculus, UniProt Q01853); experiment: ATP Kinase glo assay of p97 ATPase activity; type: biochemical
wild type p97, sequence (Q01853 whole entry): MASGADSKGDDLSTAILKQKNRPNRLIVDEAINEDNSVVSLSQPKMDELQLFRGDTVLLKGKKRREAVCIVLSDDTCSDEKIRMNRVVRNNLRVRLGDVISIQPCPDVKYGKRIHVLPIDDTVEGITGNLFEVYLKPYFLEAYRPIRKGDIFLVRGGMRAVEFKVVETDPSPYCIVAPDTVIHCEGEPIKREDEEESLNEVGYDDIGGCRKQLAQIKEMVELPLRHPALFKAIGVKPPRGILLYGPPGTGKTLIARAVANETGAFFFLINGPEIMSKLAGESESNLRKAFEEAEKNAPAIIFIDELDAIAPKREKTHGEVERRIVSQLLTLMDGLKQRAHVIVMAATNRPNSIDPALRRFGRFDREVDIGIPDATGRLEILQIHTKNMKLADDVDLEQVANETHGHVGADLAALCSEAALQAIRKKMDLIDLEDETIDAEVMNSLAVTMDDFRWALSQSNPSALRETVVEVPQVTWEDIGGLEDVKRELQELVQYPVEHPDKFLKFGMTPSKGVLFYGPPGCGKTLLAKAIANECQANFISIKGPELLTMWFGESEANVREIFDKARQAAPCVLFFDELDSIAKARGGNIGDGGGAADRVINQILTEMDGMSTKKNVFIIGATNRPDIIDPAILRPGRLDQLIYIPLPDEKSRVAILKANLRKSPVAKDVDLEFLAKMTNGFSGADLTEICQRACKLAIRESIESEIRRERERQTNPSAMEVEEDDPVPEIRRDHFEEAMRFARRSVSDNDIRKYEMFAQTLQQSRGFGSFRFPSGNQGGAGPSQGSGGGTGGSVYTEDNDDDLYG
Protocol: An assay that measures the ATPase activity of p97 and that is amenable to high-throughput screening (HTS) was developed based on the commercially-available “Kinase-Glo” assay format, wherein the ATP hydrolytic activity of p97 is monitored by using luciferase to measure the level of residual ATP in a sample following incubation with p97. Using this assay, circa 16,000 compounds were screened to evaluate their effect on the ATP hydrolysis activity of p97. This effort yielded several candidates that inhibit p97 activity. Among the compounds that were identified, one that was of particular interest was compound 8 (9-(2-nitrovinyl) anthracene shown below:
It was shown that a key feature of compound 8 is that its mode of inhibition is dependent upon the presence of a cysteine at position 522 in the D2 domain of p97.

wild type murine p97, sequence (Q01853 whole entry): as above

CC(C)(C)n1nc(-c2ccccc2)c2c(N)ncnc21 [Compound 1]
IC50 [1]: > 100 µM
accumulation of high molecular weight ubiquitin conjugates, HeLa cells [2]: not
accumulation of high molecular weight ubiquitin conjugates, RPMI8226 cells [3]: not
effect on the decay of Ub-G76V-GFP ([4]; up to 10 μM): no effect
GI50 [5]: 2 ± 1 µM
GI50 [6]: 4 ± 2 µM
GI50 [7]: 19 ± 8 µM
GI50 [8]: 92 ± 14 µM
GI50 [9]: 1.1 ± 0.7 µM
GI50 [10]: 21 ± 10 µM
GI50 [11]: 7.4 ± 4.7 µM
GI50 [12]: 15 ± 5 µM
GI50 [13]: 10 ± 2 µM
GI50 [14]: 12 ± 4 µM
GI50 [15]: 38 ± 8 µM
GI50 [16]: 18 ± 4 µM
GI50 [17]: 11 ± 1 µM
GI50 higher than that of compound 2 across the same cell lines [18]: 3 to 18 fold

O=[N+]([O-])C=Cc1c2ccccc2cc2ccccc12 [Compound 8, 9-(2-nitrovinyl) anthracene]
accumulation of high molecular weight ubiquitin conjugates, HeLa cells [2]: caused accumulation of high molecular weight ubiquitin conjugates
accumulation of high molecular weight ubiquitin conjugates, RPMI8226 cells [3]: caused accumulation of high molecular weight ubiquitin conjugates
accumulation of UbG76V-GFP [19]: caused detectable accumulation of UbG76V-GFP
K, rate constant of Ub-G76V-GFP degradation ([4]; 0.01 μM): 0.034 min⁻¹
% K ([4]; 0.01 μM): 89%
K, rate constant of Ub-G76V-GFP degradation ([4]; 0.04 μM): 0.033 min⁻¹
% K ([4]; 0.04 μM): 87%
K, rate constant of Ub-G76V-GFP degradation ([4]; 0.16 μM): 0.032 min⁻¹
% K ([4]; 0.16 μM): 85%
K, rate constant of Ub-G76V-GFP degradation ([4]; 0.63 μM): 0.031 min⁻¹
% K ([4]; 0.63 μM): 81%
K, rate constant of Ub-G76V-GFP degradation ([4]; 2.5 μM): 0.027 min⁻¹
% K ([4]; 2.5 μM): 71%
K, rate constant of Ub-G76V-GFP degradation ([4]; 10 μM): 0.023 min⁻¹
% K ([4]; 10 μM): 60%
IC50 ([4]; Homo sapiens, HeLa, 1 h, read-out: IC50 on the decay of Ub-G76V-GFP): 10 ± 4 µM
accumulation of TCR-alpha-GFP [20]: induced accumulation of the ERAD reporter, TCR-alpha-GFP
GI50 [21]: 17 ± 9 µM
GI50 ([22]; Homo sapiens, MRC5, 48 h at 37° C., CellTiter-Glo, read-out: Cell line inhibition of growth GI50 MRC5-SV40): 5 ± 3 µM
greater sensitivity of SV40-transformed cells than WT cell line ([22]; MRC5-SV40 vs MRC5-WT GI50): 3.4 fold
inhibition of wild type p97 compared with the C522A-p97 mutant [23]: significantly greater degree
